Experiment in all cases: NCI tumour cell line growth inhibition, 48 h
The subject of test [1] is NCI/ADR-RES ovarian.
For test [2], the system named is T-47D breast.
The subject of test [3] is HS 578T breast.
In test [4] the test system is MCF7 breast.
The subject of test [5] is DMS 273 small cell lung.
The test system of test [6] is DLD-1 colon.
For test [7], the system named is DMS 114 small cell lung.
Test [8] relates to XF 498 CNS.
In test [9] the test system is M19-MEL melanoma.

Among the data in PubChem BioAssay (NCI) are GI50 and TGI values, retold here.

The structures appear in SMILES notation. Several values for one entry are separate records, joined by “and”; a condition that tells them apart may be missing. Identical values can stand only once.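 Cells were grown in 96-well plates and exposed to each compound for 48 hours at five concentrations; endpoints were interpolated linearly between bracketing concentrations, or set to the highest concentration if not reached. GI50 marks 50% less growth. TGI: total growth inhibition.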

In the case of `CC(=O)O[C@H]1C(=O)[C@@]2(C)C(C(OC(=O)c3ccccc3)[C@]3(O)CC(OC(=O)[C@H](OC(=O)CCC(=O)O)C(NC(=O)c4ccccc4)c4ccccc4)C(C)=C1C3(C)C)C1(OC(C)=O)COC1C[C@@H]2O` (stereo partly specified), the GI50 in test [1] was 8.73 µM and 17.7 µM. Also, the TGI in test [1] was 61.9 µM and > 72.3 µM; in test [2], > 100 µM; in test [3], 3.1 µM and 1.57 µM; in test [4] it was > 100 µM.

With `Cc1ccc(NC(=O)CC(=O)n2nc(C)c(N=Nc3ccccc3C(=O)O)c2C)cc1`, the TGI in test [5], in test [6], in test [7], in test [8] and in test [9] was > 100 µM throughout.

On to `Nc1cccc(S(=O)(=O)NCC(=O)O)c1`, for which the TGI in test [5], in [6], in [7], in test [8] and in test [9] was > 100 µM in each case.

`CC/C=C\C[C@H](F)C/C=C1/C(=O)C=C[C@@H]1C/C=C\CCCC(=O)O`: the GI50 in test [1] is 6.78 µM; in test [2], 6.37 µM; in test [3], 13 µM; in [4] it was 1.32 µM. In addition, the TGI is > 32.5 µM in test [1], 23.2 µM in [2], > 32.5 µM in [3] and > 32.5 µM in test [4].

Regarding `Nc1c(-c2ccc(Cl)cc2)[n+]([O-])c2ccccc2[n+]1[O-]`, the TGI in test [5], in test [6], in test [7], in test [8] and in test [9] was > 100 µM each time.

Regarding `COc1cc2cc(Oc3ccc(NC(=O)Nc4ccc(Cl)c(C(F)(F)F)c4)cc3)c(C)nc2cc1OCCN1CCOCC1`, the GI50 in test [1] was 2.34 µM; in [2], 1.32 µM; in test [3] it was 1.83 µM; in test [4] it was 1.26 µM. Besides, the TGI was determined as 12.6 µM in test [1], 5.2 µM in [2], 5.11 µM in [3] and 3.33 µM in test [4].

Take `O=C(N/C(=C\c1cccc([N+](=O)[O-])c1)c1nc2ccc([N+](=O)[O-])cc2[nH]1)c1ccccc1`: the TGI was > 100 µM in test [5], > 100 µM in test [6], 59.8 µM in test [8] and > 100 µM in test [9].

In the case of `O=S(=O)(NC1=NCCN1C(=S)SN1CCn2c1nsc2=S)c1cccc(Cl)c1`, the GI50 was 21.4 µM in [1], 6.81 µM in test [2], 39.3 µM in test [3] and 15.9 µM in test [4]. The TGI in test [1] is 69.3 µM; in test [2], 25.7 µM; in test [3], > 100 µM; in [4], 36.3 µM.

`COc1ccc2c(c1)C(=O)c1c-2n(CCCn2ccnc2)c(=O)c2cc([N+](=O)[O-])ccc12`: the GI50 was < 0.01 µM in test [1], < 0.01 µM in test [2], 2.1 µM in [3] and < 0.01 µM in [4]. Also, the TGI is 0.192 µM in test [1], > 29 µM in test [3] and > 100 µM in test [4].

Consider `Nc1nccc(-c2c(-c3ccc(F)cc3)ncn2C2CCC(O)CC2)n1` (stereo unspecified), for which the GI50 is > 18 µM in test [1], 3.56 µM in test [2], 8.21 µM in test [3] and 0.677 µM in [4]. The TGI is > 25 µM in test [1], > 19 µM in test [2], > 25 µM in test [3] and > 9.14 µM in test [4].

In the case of `Cc1cccc(C(C)C)c1NC(=O)/C(Cc1c([N+](=O)[O-])cccc1[N+](=O)[O-])=N/NC(=O)CC#N`, the TGI in [5], in [6], in test [7] and in [9] was > 100 µM in each case.

For the molecule `O=C(CC1(O)C(=O)Nc2c(Cl)ccc(Cl)c21)c1ccc(F)cc1` (stereo unspecified), the TGI in test [5] is > 100 µM; in test [6] it was > 100 µM; in test [7] it was 52.1 µM; in test [8], 77.1 µM.

Turning to `O/N=C/c1ncccc1C1OCCO1`, the TGI in test [5], in test [6], in [7], in [8] and in test [9] was > 100 µM throughout.

For the molecule `O=C1C(Cl)=C(NCCN2CCOCC2)C(=O)c2ncccc21`, the GI50 in test [1] was 4.6 µM; in test [2] it was 1.83 µM; in test [3], 3.39 µM; in test [4], 1.28 µM. Besides, the TGI in test [1] is 30.8 µM; in [2] it was 5.74 µM and 4.49 µM; in test [3], 4.97 µM and 19 µM; in test [4] it was 3.4 µM and 3.31 µM.

For the molecule `N#C/C(=C\c1ccc2ccccc2c1)c1ccccc1`, the TGI in test [5] is 35.8 µM; in [6] it was > 100 µM; in test [9], > 100 µM.

In the case of `COc1ccc2nc3c(C(=O)NCCN(C)C)cccc3nc2c1`, the TGI in test [5] is 23.8 µM; in [6], > 1 µM; in [7] it was 20.2 µM; in test [9] it was 22.2 µM.

Consider `O=C(O)/C=C(\c1nc2ccc([N+](=O)[O-])cc2[nH]1)c1cc(Cl)ccc1O`, for which the GI50 is 2.71 µM in test [1], 2.3 µM in test [2], 4.97 µM in test [3] and 2.36 µM in [4]. Moreover, the TGI in [1] is > 100 µM; in test [2], 9.38 µM; in [3] it was > 100 µM; in [4], 16.6 µM.

Take `CCCC(=O)OCC1OC(n2cnc3c(=S)nc[nH]c32)C(OC(=O)CCC)C1OC(=O)CCC` (stereo unspecified): the GI50 was 8.15 µM in [1], 0.794 µM in [2], > 100 µM in test [3] and 1.95 µM in test [4]. Also, the TGI in [1], in test [2], in test [3] and in test [4] was > 100 µM in each case.

For `O=C(CC1(O)C(=O)Nc2ccccc21)c1ccncc1` (stereo unspecified), the TGI in test [5], in test [6], in test [7] and in [9] was > 100 µM each time.
